This note sets out measurements from patent US20080132505A1 (Glaxo Group Limited, priority 2004, published 2008).

As usually defined, the EC50 is the concentration at which the effect is half-maximal. Read a high EC50 as a less potent agent. As a reminder, the Emax is the maximal effect, on the per cent scale that the assay sets.

Data set [1] in a line: Particle size analysis (Lecotrac laser particle size analyser) pre and post nanomilling. The data set is classed as physicochemical. The protocol: 2.5 g of compound of example 176 was weighed into a 10 ml centrifuge tube. 25 ml of 0.3 mm yttrium zirconium (YTZ) ceramic milling beads (Manufacturer: Tosob, Japan; Supplier: Glen Creston Ltd., batch no. 5280130030)”) was weighed into a 50 ml milling pot. 22.5 ml of aqueous 1.5% HPMC was measured with a measuring cylinder into a 100 ml beaker. This solution was homogenised for 3 seconds with an Ultra Turrax T25 homogeniser. Approximately 200 mg of the 2.5 g of the compound was added to the HPMC solution and homogenised at the lowest speed setting until the powder was wetted. This was repeated until all the compound had been added. The speed of the homogeniser was then increased to maximum and the suspension was homogenised for a further 3 minutes. This suspension was allowed to stand for 30 minutes in order to allow some of the foam to disperse. The suspension was then poured into the 50 ml pot containing the YTZ milling beads, stirring to release any trapped air. The lid to the pot was then fitted and the pot sealed with some Nesco film. This procedure was repeated for a second 50 ml nanomilling pot and both pots were placed on a Retsch mill and milled for a total of 8 hours.
The milling pots were removed from the Retsch mill and left to cool and for the foam to disperse overnight. In the morning the suspension and bead mixture was passed through a 200μ, 40 mm diameter screen. The contents from each 50 ml pot was washed with aqueous 1.5% HPMC: 10% of the original suspension volume (i.e. 2.5 ml). The suspension from the 2 pots was combined to make 1 batch. The suspension obtained from the method above was named the concentrate.
A particle size analysis was carried out on the Lecotrac laser particle size analyser. The results are shown in Table B along with the results from the starting material for comparison:
Compounds of Examples 19, 34, 194, 217, 228, 247 were nanomilled on a 1 g scale using the process described above and the particle size analysed pre and post nanomilling.

The target of data set [2] is human cannabinoid CB2 receptor (Homo sapiens, UniProt P34972). Briefly: Cannabinoid CB2 receptor agonist activity (yeast reporter assay, FDGlu fluorescence). It is filed as cell-based. The following applies: for EC50: EC50 value at the cloned human cannabinoid CB2 receptor; for Emax: read-out: efficacy value (Emax relative to HU210) at the cloned human cannabinoid CB2 receptor. The method, boiled down:
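S. cerevisiae MMY23 expressing human CB2 with a Gpa1/Gαi3 chimeric G-protein, grown 24 h at 30 °C with agonist (1% DMSO) in selective media containing 10 mM 3-aminotriazole and FDGlu, pH 7.0. Fluorescein fluorescence (485/535 nm) fitted by four-parameter curve; Emax and EMR relative to HU210.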
(In general: A reporter such as luciferase makes a cellular process visible.)

The mark [3] stands for this setting: Table C, after nanomilling, 1 g scale.
Where [4] appears, read: Table C, before nanomilling, 1 g scale.
The mark [5] stands for this setting: Table B, after 8 hours milling in aqueous 1.5% HPMC, 2.5 g per pot.
Where [6] appears, read: Table B, starting material before nanomilling, Lecotrac laser particle size analyser.

The structures appear in SMILES notation. A value given as a limit tells only on which side of the number the result lay.

Chain of human cannabinoid CB2 receptor (P34972 whole entry): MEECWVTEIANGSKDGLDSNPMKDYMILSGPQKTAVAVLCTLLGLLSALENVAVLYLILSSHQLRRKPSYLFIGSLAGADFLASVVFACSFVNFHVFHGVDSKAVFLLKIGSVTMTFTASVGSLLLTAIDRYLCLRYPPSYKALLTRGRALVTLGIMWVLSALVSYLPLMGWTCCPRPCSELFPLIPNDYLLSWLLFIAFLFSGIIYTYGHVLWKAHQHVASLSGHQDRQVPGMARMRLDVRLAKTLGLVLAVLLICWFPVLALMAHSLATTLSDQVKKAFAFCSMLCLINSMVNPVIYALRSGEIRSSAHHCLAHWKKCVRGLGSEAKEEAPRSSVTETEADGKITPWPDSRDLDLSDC

With `O=C(NCC1CCCCC1)c1cnc(Nc2cccc(F)c2)nc1C(F)(F)F` [Example 19, 2-(3-Fluorophenylamino)-4-trifluoromethylpyrimidine-5-carboxylic acid cyclohexylmethyl-amide], in data set [1] (setting [3]), the “Post-nanomilling 50% percentile” value amounted to 0.40 μ and the “Post-nanomilling 95% percentile” value stood at 1.40 μ. Moreover, in data set [1] (setting [4]), the “Pre-nanomilling 50% percentile” value is reported as 5.22 μ and the “Pre-nanomilling 95% percentile” value came out at 25.5 μ. Besides, in data set [2], the half-maximal effective concentration (EC50) is 20 to 300 nM and the Emax is > 50%.

In the case of `O=C(NCC1CCOCC1)c1cnc(Nc2ccc(Cl)cc2Cl)nc1C(F)(F)F` [Example 34, 2-(2,4-Dichlorophenylamino)-4-trifluoromethylpyrimidine-5-carboxylic acid (tetrahydropyran-4-ylmethyl)-amide], in data set [1] (setting [3]), the “Post-nanomilling 50% percentile” value is listed as 0.18 μ and the “Post-nanomilling 95% percentile” value was 0.56 μ. In data set [1] (setting [4]), the “Pre-nanomilling 50% percentile” value is reported as 10.46 μ and the “Pre-nanomilling 95% percentile” value is on record as 32.7 μ. In addition, in data set [2], the EC50 is 20 to 300 nM and the Emax was > 50%.

`N#Cc1ccc(Nc2ncc(C(=O)NCC3CCCC3)c(C(F)(F)F)n2)cc1` [Example 176, 2-(4-Cyanophenylamino)-4-trifluoromethyl-pyrimidine-5-carboxylic acid cyclopentylmethyl-amide]: in data set [1] (setting [5]), the “Post-nanomilling 50% percentile” value is 0.33 μ and the “Post-nanomilling 95% percentile” value is 1.78 μ. For the same compound, in data set [1] (setting [6]), the “Pre-nanomilling 50% percentile” value came to 13.15 μ and the “Pre-nanomilling 95% percentile” value is recorded as 68.7 μ. In data set [2], the EC50 was in the range of 20 to 300 nM and the Emax is > 50%.

Regarding `O=C(NCC1CCC1)c1cnc(Nc2ccc(F)c(Cl)c2)nc1C(F)(F)F` [Example 194, 2-(3-Chloro-4-fluorophenylamino)-4-trifluoromethyl-pyrimidine-5-carboxylic acid cyclobutylmethyl-amide], in data set [1] (setting [3]), the “Post-nanomilling 50% percentile” value is reported as 0.56 μ and the “Post-nanomilling 95% percentile” value came out at 1.97 μ. In data set [1] (setting [4]), the “Pre-nanomilling 50% percentile” value is 6.78 μ and the “Pre-nanomilling 95% percentile” value amounted to 33.7 μ. In addition, in data set [2], the EC50 was 20 to 300 nM and the Emax is > 50%.

Consider `N#Cc1ccc(Nc2ncc(C(=O)NCC3CCOCC3)c(C(F)(F)F)n2)cc1Cl` [Example 217, 2-(4-Cyano-3-chloro-phenylamino)-4-trifluoromethyl-pyrimidine-5-carboxylic acid (tetrahydro-pyran-4-ylmethyl)-amide], for which, in data set [1] (setting [3]), the “Post-nanomilling 50% percentile” value is 0.34 μ and the “Post-nanomilling 95% percentile” value was 1.30 μ. Besides, in data set [1] (setting [4]), the “Pre-nanomilling 50% percentile” value was 5.70 μ and the “Pre-nanomilling 95% percentile” value is listed as 34.9 μ. In addition, in data set [2], the EC50 lay in the range of 20 to 300 nM and the Emax was > 50%.

Turning to `O=C(NCC1CCC1)c1cnc(Nc2ccc(Cl)cc2F)nc1C(F)(F)F` [Example 228, 2-(2-Fluoro-4-chloro-phenylamino)-4-trifluoromethyl-pyrimidine-5-carboxylic acid cyclobutylmethyl-amide], in data set [1] (setting [3]), the “Post-nanomilling 50% percentile” value is recorded as 0.44 μ and the “Post-nanomilling 95% percentile” value amounted to 1.69 μ. Moreover, in data set [1] (setting [4]), the “Pre-nanomilling 50% percentile” value is 4.65 μ and the “Pre-nanomilling 95% percentile” value is 47.1 μ. For the same compound, in data set [2], the EC50 lay in the range of 20 to 300 nM and the Emax was > 50%.

For the compound `O=C(NCC1CCCC1)c1cnc(Nc2ccc(F)c(Cl)c2)nc1C(F)(F)F` [Example 247, 2-(3-Chloro-4-fluoro-phenylamino)-4-trifluoromethyl-pyrimidine-5-carboxylic acid cyclopentylmethyl-amide], in data set [1] (setting [3]), the “Post-nanomilling 50% percentile” value is reported as 0.64 μ and the “Post-nanomilling 95% percentile” value came to 2.53 μ. Also, in data set [1] (setting [4]), the “Pre-nanomilling 50% percentile” value stood at 13.2 μ and the “Pre-nanomilling 95% percentile” value came to 68.7 μ. Moreover, in data set [2], the EC50 fell in the range of 20 to 300 nM and the Emax is > 50%.
